Source: patent publication US20260042773A1, “NOVEL CAMPTOTHECIN ANALOGS AND IMMUNOCONJUGATES THEREOF” (priority 2022, published 2026)

Columns and labels:
[1] = test system: SU-DHL-1 cells; experiment: Cell viability (Cell Titer Glo 2.0) in SU-DHL-1 cells; assay type: cell-based; settings: Homo sapiens, 120 hours at 37° C., Cell Titer Glo 2.0, normalized to non-treated controls
Protocol: (§1) SU-DHL-1 and SK-BR-3 cells (ATCC, Manassas, VA, USA) were seeded into 384-well white-walled culture plates and allowed to adhere for 2-4 hours. Cells were then treated at least in duplicate by addition of 5-fold serially diluted test articles prepared at 2× final concentration and incubated at 37° C. for 120 hours. Cell viability following treatment was determined by Cell Titer Glo 2.0 Assay (Promega, Madison, WI, USA) and normalized to non-treated controls. Dose-response relationships were analyzed using GraphPad Prism (La Jolla, C A, USA), and IC50 values were derived from non-linear regression analyses using a 4-parameter logistic equation.

[2] = test system: SK-BR-3 cells; experiment: Cell viability (Cell Titer Glo 2.0) in SK-BR-3 cells; assay type: cell-based; settings: Homo sapiens, 120 hours at 37° C., Cell Titer Glo 2.0, normalized to non-treated controls
Protocol: as §1

SMILES | IC50 [1] | IC50 [2]
CC[C@@]1(O)C(=O)OCc2c1cc1n(c2=O)Cc2c-1nc1ccc(N)cc1c2CN1CCOCC1 [Compound 1] | < 5 nM | 5 to 20 nM
CC[C@@]1(O)C(=O)OCc2c1cc1n(c2=O)Cc2c-1nc1ccc(N)cc1c2CN1CCN(C)CC1 [Compound 2] | 5 to 20 nM | > 20 nM
CC[C@@]1(O)C(=O)OCc2c1cc1n(c2=O)Cc2c-1nc1ccc(N)cc1c2CN1CCS(=O)(=O)CC1 [Compound 3] | > 20 nM | > 20 nM
CC[C@@]1(O)C(=O)OCc2c1cc1n(c2=O)Cc2c-1nc1ccc(N)cc1c2COC [Compound 4] | < 5 nM | < 5 nM
CC[C@@]1(O)C(=O)OCc2c1cc1n(c2=O)Cc2c-1nc1ccc(N)cc1c2N1CCOCC1 [Compound 5] | < 5 nM | < 5 nM
CC[C@@]1(O)C(=O)OCc2c1cc1n(c2=O)Cc2c-1nc1ccc(N)cc1c2N1CCCC1 [Compound 6] | 5 to 20 nM | 5 to 20 nM
CC[C@@]1(O)C(=O)OCc2c1cc1n(c2=O)Cc2c-1nc1ccc(N)cc1c2N1CC2(COC2)C1 [Compound 7] | 5 to 20 nM | 5 to 20 nM
CC[C@@]1(O)C(=O)OCc2c1cc1n(c2=O)Cc2c-1nc1ccc(N)cc1c2N1CCC1 [Compound 8] | 5 to 20 nM | 5 to 20 nM
CC[C@@]1(O)C(=O)OCc2c1cc1n(c2=O)Cc2c-1nc1ccc(N)cc1c2N1CC2(CCOCC2)C1 [Compound 9] | < 5 nM | 5 to 20 nM
CC[C@@]1(O)C(=O)OCc2c1cc1n(c2=O)Cc2c-1nc1ccc(N)cc1c2CO [Compound 10] | 5 to 20 nM | 5 to 20 nM
CC[C@@]1(O)C(=O)OCc2c1cc1n(c2=O)Cc2c-1nc1ccc(N)cc1c2N1CC2(CCOC2)C1 [Compound 11] | < 5 nM | < 5 nM
CC[C@@]1(O)C(=O)OCc2c1cc1n(c2=O)Cc2c-1nc1ccc(N)cc1c2N1CCCCC1 [Compound 12] | < 5 nM | < 5 nM
CC[C@@]1(O)C(=O)OCc2c1cc1n(c2=O)Cc2c-1nc1ccc(N)cc1c2N(C)C [Compound 14] | 5 to 20 nM | 5 to 20 nM
CC[C@@]1(O)C(=O)OCc2c1cc1n(c2=O)Cc2c-1nc1ccc(N)cc1c2N1CCN(S(C)(=O)=O)CC1 [Compound 15] | 5 to 20 nM | > 20 nM
CC[C@@]1(O)C(=O)OCc2c1cc1n(c2=O)Cc2c-1nc1ccc(N)cc1c2N(C)CCOC [Compound 16] | < 5 nM | 5 to 20 nM
CC[C@@]1(O)C(=O)OCc2c1cc1n(c2=O)Cc2c-1nc1ccc(N)cc1c2N(C)CCN(C)C [Compound 17] | > 20 nM | > 20 nM
CC[C@@]1(O)C(=O)OCc2c1cc1n(c2=O)Cc2c-1nc1ccc(N)cc1c2N1C[C@H]2CC[C@@H](C1)O2 [Compound 18] | < 5 nM | < 5 nM
CC[C@@]1(O)C(=O)OCc2c1cc1n(c2=O)Cc2c-1nc1ccc(N)cc1c2NC [Compound 19] | > 20 nM | 5 to 20 nM
CC[C@@]1(O)C(=O)OCc2c1cc1n(c2=O)Cc2c-1nc1ccc(N)cc1c2N(C)CCO [Compound 20] | > 20 nM | > 20 nM
CC[C@@]1(O)C(=O)OCc2c1cc1n(c2=O)Cc2c-1nc1ccc(N)cc1c2N [Compound 21] | > 20 nM | 5 to 20 nM
CC[C@@]1(O)C(=O)OCc2c1cc1n(c2=O)Cc2c-1nc1ccc(N)cc1c2N1CCSCC1 [Compound 23] | < 5 nM | < 5 nM
